We go through 16 compounds from US20250235543A1, “MODIFIED PROTEINS AND PROTEIN DEGRADERS” (Cullgen (Shanghai), Inc., priority 2021, published 2025).

Test [1] relates to cyclin D1. In words: Cyclin D1 percentage degradation in Calu-1 cells (immunoblotting). In kind it is cell-based. To be noted: 200 nM, 16 hours. In short, it runs like this:
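Cyclin D1 degradation was assessed by western blot. Clarified lysates, obtained by RIPA lysis with inhibitors and centrifugation at 13,000 rpm, were normalized by BCA protein assay and separated by SDS-PAGE. Bands were detected with Western ECL Substrate on a Bio-Rad ChemiDoc MP Imaging system and quantified in Image Lab software to derive percentage degradation.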
Background: Immunoblotting shows a protein as a band on a membrane.

Test [2] concerns the target T1, CDK4 (Homo sapiens, UniProt P11802).
T1 construct: endogenous in cells; host or cells: Calu-1
In words: CDK4 percentage degradation in Calu-1 cells (immunoblotting). In kind it is cell-based. To be noted: read-out: CDK4 Degradation (200 nM). In short, it runs like this: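 CDK4 degradation was measured by immunoblotting. Cells were washed in cold PBS and lysed in RIPA buffer with inhibitors for 30 min at 4° C., then spun at 13,000 rpm to clear. After BCA protein determination, lysates were heated at 99° C. for 5 min in Laemmli buffer, resolved on SDS-PAGE, imaged on a ChemiDoc MP with ECL substrate, and band intensities quantified.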

Read-outs that look alike come from different tables or passages of the source.

T1 sequence (P11802 2-303 limits assumed): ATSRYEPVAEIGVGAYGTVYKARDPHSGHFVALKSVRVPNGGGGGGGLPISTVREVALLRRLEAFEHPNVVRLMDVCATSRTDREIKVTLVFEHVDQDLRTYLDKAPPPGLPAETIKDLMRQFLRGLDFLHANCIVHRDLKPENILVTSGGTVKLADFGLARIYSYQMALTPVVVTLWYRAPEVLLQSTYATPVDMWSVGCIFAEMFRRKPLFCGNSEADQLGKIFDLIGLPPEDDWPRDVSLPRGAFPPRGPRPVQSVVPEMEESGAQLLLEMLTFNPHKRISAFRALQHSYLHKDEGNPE
T1 sequence (P24385 whole entry partner): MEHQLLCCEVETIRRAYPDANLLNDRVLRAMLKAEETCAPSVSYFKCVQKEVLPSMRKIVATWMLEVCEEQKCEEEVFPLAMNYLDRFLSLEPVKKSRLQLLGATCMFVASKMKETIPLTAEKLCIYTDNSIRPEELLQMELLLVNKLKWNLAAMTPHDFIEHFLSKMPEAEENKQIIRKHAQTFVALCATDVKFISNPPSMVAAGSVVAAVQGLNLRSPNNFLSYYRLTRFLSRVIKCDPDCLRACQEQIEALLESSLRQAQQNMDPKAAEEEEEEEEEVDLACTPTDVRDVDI
T1 sequence (Q16531 2-1140 limits assumed, further chain): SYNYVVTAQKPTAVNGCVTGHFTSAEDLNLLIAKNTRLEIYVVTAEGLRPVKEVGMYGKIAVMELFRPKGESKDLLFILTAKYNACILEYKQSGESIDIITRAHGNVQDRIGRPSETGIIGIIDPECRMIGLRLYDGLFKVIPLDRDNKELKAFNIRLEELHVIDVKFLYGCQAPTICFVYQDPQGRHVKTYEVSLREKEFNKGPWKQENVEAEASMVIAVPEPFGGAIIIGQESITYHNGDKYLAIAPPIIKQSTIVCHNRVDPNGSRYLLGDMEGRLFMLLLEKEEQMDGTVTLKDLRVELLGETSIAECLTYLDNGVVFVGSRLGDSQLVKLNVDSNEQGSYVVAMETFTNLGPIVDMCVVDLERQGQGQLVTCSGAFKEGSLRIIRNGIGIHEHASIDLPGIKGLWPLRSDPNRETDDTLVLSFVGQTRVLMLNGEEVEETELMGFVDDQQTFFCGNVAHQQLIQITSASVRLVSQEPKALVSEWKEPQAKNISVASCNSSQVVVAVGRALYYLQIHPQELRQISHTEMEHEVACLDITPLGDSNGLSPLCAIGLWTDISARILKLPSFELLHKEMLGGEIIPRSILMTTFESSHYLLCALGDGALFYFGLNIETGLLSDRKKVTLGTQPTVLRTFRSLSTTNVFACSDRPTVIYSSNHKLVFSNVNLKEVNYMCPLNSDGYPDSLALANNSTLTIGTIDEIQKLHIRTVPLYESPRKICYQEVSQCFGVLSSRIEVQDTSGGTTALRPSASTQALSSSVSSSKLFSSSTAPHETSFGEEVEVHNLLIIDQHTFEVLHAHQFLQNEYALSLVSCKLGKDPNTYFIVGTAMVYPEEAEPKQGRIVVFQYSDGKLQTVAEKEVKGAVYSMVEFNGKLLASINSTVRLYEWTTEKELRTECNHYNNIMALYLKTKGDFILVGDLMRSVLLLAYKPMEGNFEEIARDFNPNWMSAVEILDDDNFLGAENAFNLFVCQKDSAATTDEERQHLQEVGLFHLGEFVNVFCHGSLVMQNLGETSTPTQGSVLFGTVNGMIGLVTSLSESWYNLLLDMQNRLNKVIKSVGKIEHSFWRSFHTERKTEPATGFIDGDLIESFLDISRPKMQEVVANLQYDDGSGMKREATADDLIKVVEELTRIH

`CNC(=O)c1ccc(C)nc1NCCCCCCCNC(=O)CN1CCN(c2ccc(Nc3ncc4c(C)c(C(C)=O)c(=O)n(C5CCCC5)c4n3)nc2)CC1` [CPD-340]: in test [1], the “CyclinD1 Degradation (200 nM)” value is on record as “D (protein percentage degradation <30%)”. The inhibition at 0.2 µM in test [2] (Calu-1 cells, 200 nM, 16 hours) was below 30%.
Consider `COc1ccc(NC(=O)c2cccc(NCCOCCOCCNC(=O)CN3CCN(c4ccc(Nc5ncc6c(C)c(C(C)=O)c(=O)n(C7CCCC7)c6n5)nc4)CC3)c2C)nn1` [CPD-341, 3-((2-(2-(2-(2-(4-(6-((6-Acetyl-8-cyclopentyl-5-methyl-7-oxo-7,8-dihydropyrido[2,3-d]pyrimidin-2-yl)amino)pyridin-3-yl)piperazin-1-yl)acetamido)ethoxy)ethoxy)ethyl)amino)-N-(6-methoxypyridazin-3-yl)-2-methylbenzamide], for which, in test [1], the “CyclinD1 Degradation (200 nM)” value is “D (protein percentage degradation <30%)”. Besides, the inhibition at 0.2 µM in test [2] (Calu-1 cells, 200 nM, 16 hours) is below 30%.
For the compound `COc1ccc(NC(=O)c2ccccc2NC(=O)CCOCCOCCNC(=O)CN2CCN(c3ccc(Nc4ncc5c(C)c(C(C)=O)c(=O)n(C6CCCC6)c5n4)nc3)CC2)nc1` [CPD-342, 2-(3-(2-(2-(2-(4-(6-((6-Acetyl-8-cyclopentyl-5-methyl-7-oxo-7,8-dihydropyrido[2,3-d]pyrimidin-2-yl)amino)pyridin-3-yl)piperazin-1-yl)acetamido)ethoxy)ethoxy)propanamido)-N-(5-methoxypyridin-2-yl)benzamide], in test [1], the “CyclinD1 Degradation (200 nM)” value is reported as “A (protein percentage degradation >=80%)”. Besides, the inhibition at 0.2 µM in test [2] (Calu-1 cells, 200 nM, 16 hours) was 50 to 80%.
On to `COc1ccc(NC(=O)c2ccccc2NC(=O)CCN2CCN(CCNC(=O)CN3CCN(c4ccc(Nc5ncc6c(C)c(C(C)=O)c(=O)n(C7CCCC7)c6n5)nc4)CC3)CC2)nn1` [CPD-345, 2-(3-(4-(2-(2-(4-(6-((6-Acetyl-8-cyclopentyl-5-methyl-7-oxo-7,8-dihydropyrido[2,3-d]pyrimidin-2-yl)amino)pyridin-3-yl)piperazin-1-yl)acetamido)ethyl)piperazin-1-yl)propanamido)-N-(6-methoxypyridazin-3-yl)benzamide], for which the “CyclinD1 Degradation (200 nM)” value in test [1] was “A (protein percentage degradation >=80%)”. The inhibition at 0.2 µM in test [2] (Calu-1 cells, 200 nM, 16 hours) lay in the range of 50 to 80%.
Consider `COc1ccc(NC(=O)c2ccccc2NC(=O)CCCCN2CCC(NC(=O)CN3CCN(c4ccc(Nc5ncc6c(C)c(C(C)=O)c(=O)n(C7CCCC7)c6n5)nc4)CC3)CC2)nn1` [CPD-346, 2-(5-(4-(2-(4-(6-((6-Acetyl-8-cyclopentyl-5-methyl-7-oxo-7,8-dihydropyrido[2,3-d]pyrimidin-2-yl)amino)pyridin-3-yl)piperazin-1-yl)acetamido)piperidin-1-yl)pentanamido)-N-(6-methoxypyridazin-3-yl)benzamide], for which the “CyclinD1 Degradation (200 nM)” value in test [1] is “A (protein percentage degradation >=80%)”. The inhibition at 0.2 µM in test [2] (Calu-1 cells, 200 nM, 16 hours) was in the range of 50 to 80%.
As for `COc1ccc(NC(=O)c2ccccc2NC(=O)COCCN2CCC(NC(=O)CN3CCN(c4ccc(Nc5ncc6c(C)c(C(C)=O)c(=O)n(C7CCCC7)c6n5)nc4)CC3)CC2)nn1` [CPD-347, 2-(2-(2-(4-(2-(4-(6-((6-Acetyl-8-cyclopentyl-5-methyl-7-oxo-7,8-dihydropyrido[2,3-d]pyrimidin-2-yl)amino)pyridin-3-yl)piperazin-1-yl)acetamido)piperidin-1-yl)ethoxy)acetamido)-N-(6-methoxypyridazin-3-yl)benzamide], in test [1], the “CyclinD1 Degradation (200 nM)” value was “D (protein percentage degradation <30%)”. In test [2] (Calu-1 cells, 200 nM, 16 hours), the inhibition at 0.2 µM is below 30%.
`COc1ccc(NC(=O)c2ccccc2NC(=O)CCOCCN2CCC(NC(=O)CN3CCN(c4ccc(Nc5ncc6c(C)c(C(C)=O)c(=O)n(C7CCCC7)c6n5)nc4)CC3)CC2)nn1` [CPD-348, 2-(3-(2-(4-(2-(4-(6-((6-Acetyl-8-cyclopentyl-5-methyl-7-oxo-7,8-dihydropyrido[2,3-d]pyrimidin-2-yl)amino)pyridin-3-yl)piperazin-1-yl)acetamido)piperidin-1-yl)ethoxy)propanamido)-N-(6-methoxypyridazin-3-yl)benzamide]: the “CyclinD1 Degradation (200 nM)” value in test [1] is reported as “D (protein percentage degradation <30%)”. In test [2] (Calu-1 cells, 200 nM, 16 hours), the inhibition at 0.2 µM is below 30%.
Take `CC(=O)c1c(C)c2cnc(Nc3ccc(N4CCN(CC(=O)NCCOCCOCCC(=O)Nc5ccccc5C(=O)Nc5ccc(OC6CC6)nn5)CC4)cn3)nc2n(C2CCCC2)c1=O` [CPD-350, 2-(3-(2-(2-(2-(4-(6-((6-Acetyl-8-cyclopentyl-5-methyl-7-oxo-7,8-dihydropyrido[2,3-d]pyrimidin-2-yl)amino)pyridin-3-yl)piperazin-1-yl)acetamido)ethoxy)ethoxy)propanamido)-N-(6-cyclopropoxypyridazin-3-yl)benzamide]: the “CyclinD1 Degradation (200 nM)” value in test [1] was “A (protein percentage degradation >=80%)”. Also, in test [2] (Calu-1 cells, 200 nM, 16 hours), the inhibition at 0.2 µM lay in the range of 50 to 80%.
With `CC(=O)c1c(C)c2cnc(Nc3ccc(N4CCN(CC(=O)NCCOCCOCCC(=O)Nc5ccccc5C(=O)Nc5ccc(OC(C)C)nn5)CC4)cn3)nc2n(C2CCCC2)c1=O` [CPD-351, 2-(3-(2-(2-(2-(4-(6-((6-Acetyl-8-cyclopentyl-5-methyl-7-oxo-7,8-dihydropyrido[2,3-d]pyrimidin-2-yl)amino)pyridin-3-yl)piperazin-1-yl)acetamido)ethoxy)ethoxy)propanamido)-N-(6-isopropoxypyridazin-3-yl)benzamide], the “CyclinD1 Degradation (200 nM)” value in test [1] is on record as “D (protein percentage degradation <30%)”. Further, the inhibition at 0.2 µM in test [2] (Calu-1 cells, 200 nM, 16 hours) is below 30%.
For the compound `CC(=O)c1c(C)c2cnc(Nc3ccc(N4CCN(C(=O)CCOCCOCCOCCC(=O)Nc5ccccc5C(=O)Nc5nc(C)c(C)s5)CC4)cn3)nc2n(C2CCCC2)c1=O` [CPD-357, 2-(3-(2-(2-(3-(4-(6-((6-Acetyl-8-cyclopentyl-5-methyl-7-oxo-7,8-dihydropyrido[2,3-d]pyrimidin-2-yl)amino)pyridin-3-yl)piperazin-1-yl)-3-oxopropoxy)ethoxy)ethoxy)propanamido)-N-(4,5-dimethylthiazol-2-yl)benzamide], the “CyclinD1 Degradation (200 nM)” value in test [1] is reported as “A (protein percentage degradation >=80%)”. In addition, the inhibition at 0.2 µM in test [2] (Calu-1, 16 h) fell in the range of 50 to 80%.
For the compound `CC(=O)c1c(C)c2cnc(Nc3ccc(N4CCN(CC(=O)NCCOCCOCCC(=O)Nc5cc6c(cc5C(=O)Nc5ccc(C)cn5)CCCN6)CC4)cn3)nc2n(C2CCCC2)c1=O` [CPD-358, 7-(3-(2-(2-(2-(4-(6-((6-Acetyl-8-cyclopentyl-5-methyl-7-oxo-7,8-dihydropyrido[2,3-d]pyrimidin-2-yl)amino)pyridin-3-yl)piperazin-1-yl)acetamido)ethoxy)ethoxy)propanamido)-N-(5-methylpyridin-2-yl)-1,2,3,4-tetrahydroquinoline-6-carboxamide], the “CyclinD1 Degradation (200 nM)” value in test [1] is reported as “A (protein percentage degradation >=80%)”. In addition, in test [2] (Calu-1 cells, 200 nM, 16 hours), the inhibition at 0.2 µM lay in the range of 50 to 80%.
As to `CC(=O)c1c(C)c2cnc(Nc3ccc(N4CCN(CC(=O)NCCOCCOCCC(=O)Nc5c(C(=O)Nc6ccc(C)cn6)ccc6[nH]ncc56)CC4)cn3)nc2n(C2CCCC2)c1=O` [CPD-359], in test [1], the “CyclinD1 Degradation (200 nM)” value is given as “A (protein percentage degradation >=80%)”. Further, the inhibition at 0.2 µM in test [2] (Calu-1 cells, 200 nM, 16 hours) lay in the range of 50 to 80%.
Regarding `CC(=O)c1c(C)c2cnc(Nc3ccc(N4CCN(CC(=O)NCCOCCOCCC(=O)Nc5cc6c(cc5C(=O)Nc5ccc(C)cn5)CCN6)CC4)cn3)nc2n(C2CCCC2)c1=O` [CPD-360, 6-(3-(2-(2-(2-(4-(6-((6-Acetyl-8-cyclopentyl-5-methyl-7-oxo-7,8-dihydropyrido[2,3-d]pyrimidin-2-yl)amino)pyridin-3-yl)piperazin-1-yl)acetamido)ethoxy)-ethoxy)propanamido)-N-(5-methylpyridin-2-yl)indoline-5-carboxamide], in test [1], the “CyclinD1 Degradation (200 nM)” value is given as “A (protein percentage degradation >=80%)”. Besides, the inhibition at 0.2 µM in test [2] (Calu-1 cells, 200 nM, 16 hours) was above 80%.
`CC(=O)c1c(C)c2cnc(Nc3ccc(N4CCN(CC(=O)NCCOCCOCCC(=O)Nc5c(C(=O)Nc6ccc(C)cn6)ccc6[nH]ccc56)CC4)cn3)nc2n(C2CCCC2)c1=O` [CPD-361, 4-(3-(2-(2-(2-(4-(6-((6-acetyl-8-cyclopentyl-5-methyl-7-oxo-7,8-dihydropyrido[2,3-d]pyrimidin-2-yl)amino)pyridin-3-yl)piperazin-1-yl)acetamido)ethoxy)ethoxy)propanamido)-N-(5-methylpyridin-2-yl)-1H-indole-5-carboxamide]: in test [1], the “CyclinD1 Degradation (200 nM)” value is “A (protein percentage degradation >=80%)”. The inhibition at 0.2 µM in test [2] (Calu-1 cells, 200 nM, 16 hours) is 50 to 80%.
Turning to `CC(=O)c1c(C)c2cnc(Nc3ccc(N4CCN(CC(=O)NCCOCCOCCC(=O)Nc5c(C(=O)Nc6ccc(C)cn6)ccc6ncccc56)CC4)cn3)nc2n(C2CCCC2)c1=O` [CPD-362, 5-(3-(2-(2-(2-(4-(6-((6-Acetyl-8-cyclopentyl-5-methyl-7-oxo-7,8-dihydropyrido[2,3-d]pyrimidin-2-yl)amino)pyridin-3-yl)piperazin-1-yl)acetamido)ethoxy)ethoxy)propanamido)-N-(5-methylpyridin-2-yl)quinoline-6-carboxamide], the “CyclinD1 Degradation (200 nM)” value in test [1] was “D (protein percentage degradation <30%)”. Further, in test [2] (Calu-1 cells, 200 nM, 16 hours), the inhibition at 0.2 µM was below 30%.
For the compound `CC(=O)c1c(C)c2cnc(Nc3ccc(N4CCN(CC(=O)NCCCCCNc5ccccc5C(=O)Nc5nc(C)c(C)s5)CC4)cn3)nc2n(C2CCCC2)c1=O` [CPD-363, 2-((5-(2-(4-(6-((6-Acetyl-8-cyclopentyl-5-methyl-7-oxo-7,8-dihydropyrido[2,3-d]pyrimidin-2-yl)amino)pyridin-3-yl)piperazin-1-yl)acetamido)pentyl)amino)-N-(4,5-dimethylthiazol-2-yl)benzamide], in test [1], the “CyclinD1 Degradation (200 nM)” value was “A (protein percentage degradation >=80%)”. For the same compound, the inhibition at 0.2 µM in test [2] (Calu-1 cells, 200 nM, 16 hours) is 50 to 80%.
